Common to all, as to type: cell-based, human
The subject of assay [1] is HCC-1806 cells. Kind of assay: Live-cell phase-contrast microscopy of HCC-1806 cells. To be noted: near confluent HCC-1806, 10 μM, 24 h. How it is done:
FIG. 2A is an image showing apoptosis of HCC-1806 cells after treatment with a 5-nitrofuran-2-amide derivative compound 3d (above). Cells were treated with 3d (10 μM) for the indicated times, and cleavage of caspase-3 was determined by Western blotting. α-Tubulin was used as a loading control. The data shown are representative of 3 independent studies. FIGS. 2B and 2C are live-cell phase-contrast images (magnification 10×) showing treatment with DMSO and (10 μM) 5-nitrofuran-2-amide derivative compound 3d respectively for 24 h. To determine whether the reduction in TNBC cell viability by the 5-nitrofuran-2-amide derivatives was due to the induction of apoptosis, the inventor analyzed cleavage of caspase-3, a critical executioner of apoptosis, in HCC-1806 cells treated with compound 3d. […] To confirm this, HCC-1806 cells were cultured to near confluence and treated with 10 μM 3d or DMSO for 24 h and then imaged by live-cell phase-contrast microscopy.

Assay [2] has as its system XBP1 mRNA splicing (IRE1α pathway). Description: XBP1 mRNA splicing by RT-PCR in HCC-1806 cells. To be noted: HCC-1806, 3d 10 μM, at 2~24 h (11% at 0 h). The method, then: FIG. 3E is a graph showing XBP1 mRNA levels in HCC-1806 cells treated with tunicamycin or a 5-nitrofuran-2-amide derivative compound 3d. HCC-1806 cells were treated with compound 3d (10 μM) or tunicamycin (Tm, 1 μg/mL) for the indicated times. XBP1 mRNA levels were analyzed by RT-PCR and the products were resolved by agarose gel electrophoresis. The full-length (unspliced, XBP1u) and spliced (XBP1s) forms of XBP1 mRNA are indicated. GAPDH mRNA was used as an internal control.
The percentage of XBP1s relative to total XBP1 was calculated as: (XBP1s/[XBP1s+XBP1u])×100%. The data shown are representative of 3 independent studies.
The inventor next asked whether the IRE1α and ATF6 branches of the unfolded protein response were also activated by compound 3d treatment of TNBC cells. […] XBP1 mRNA splicing, as measured by XBP1s levels, increased only slightly in the first 24 h after compound 3d treatment of HCC-1806 cells (from 11% of total XBP1 at 0 h to 15˜20% at 2˜24 h). […] Next, it was determined whether compound 3d activates the ATF6 pathway by evaluating its effect on the activity of an ER stress response elements (ERSE)-Luc reporter stably established in HEK293 cell line. […]

Assay [3] has as its system ER stress response elements (ERSE)-Luc reporter. Kind of assay: ERSE-Luc reporter assay in HEK293 cells. To be noted: 10 μM, 24 h. How it is done: FIG. 3G is a graph showing HEK293 cells stably expressing CHOP-Luc, ERSE-Luc, or UPRE-luc reporters were treated with DMSO, a 5-nitrofuran-2-amide derivative, or tunicamycin. HEK293 cells stably expressing CHOP-Luc, ERSE-Luc, or UPRE-luc reporters were treated with DMSO, compound 3d (10 μM), or Tm (1 μg/mL) for 24 h, and luciferase activity was measured using the Bright-Glo assay. Results are the means of 4 replicate wells and are representative of 3 independent experiments.
The inventor next asked whether the IRE1α and ATF6 branches of the unfolded protein response were also activated by compound 3d treatment of TNBC cells. […] XBP1 mRNA splicing, as measured by XBP1s levels, increased only slightly in the first 24 h after compound 3d treatment of HCC-1806 cells (from 11% of total XBP1 at 0 h to 15˜20% at 2˜24 h). […] Next, it was determined whether compound 3d activates the ATF6 pathway by evaluating its effect on the activity of an ER stress response elements (ERSE)-Luc reporter stably established in HEK293 cell line.
The HEK293T CHOP reporter cell line (CHOP-Luc) was previously described.^21 HEK293T cells were stably transfected with ERSE-Luciferase^25 and UPRE-Luciferase^23 reporters to generate ERSE-Luc and UPRE-Luc reporter cell lines, respectively. […] Luciferase activity was measured with a Bright-Glo kit 24 h later.
On the technique in general: A reporter such as luciferase makes a cellular process visible.

The test system of assay [4] is HCC-1806 cells. Description: Viability of siRNA-transfected HCC-1806 cells, CellTiter-Glo. As to conditions: 48 h. How it is done:
FIG. 3H is a graph showing cell viability of HCC-1806 cells transfected with a control or CHOP siRNA after treatment with a 5-nitrofuran-2-amide derivative or DMSO. Control or CHOP siRNA (20 nM) was transfected into HCC-1806 cells, and 6 h later, cells were treated with compound 3d (5 μM) or DMSO for 48 h. Cell viability was measured using the CellTiter-Glo assay. The data shown are representative of 3 independent studies. *P<0.05 by Student's t-test compared with DMSO-treated cells.
To confirm that CHOP induction plays a role in compound 3d-mediated TNBC cell death, the inventor asked whether siRNA-mediated knockdown of CHOP mitigated compound 3d-induced cell death. For this, HCC-1806 cells were transfected with different concentrations of CHOP siRNA, and knockdown efficiency was assessed by RT-PCR.
HCC-1806 cells incubated with serum-free RPMI 1640 medium (Corning) were transfected with scrambled control or CHOP siRNA (E-004819-00; Dharmacon/Thermo Scientific, IL, US) using LipofectAMINE reagent (Invitrogen). After 6 h, the medium was replaced with RPMI 1640 medium supplemented with 10% FBS and compound 3d was added. After 48 h, the medium was aspirated and 60 μL/well of CellTiter-Glo reagent was added in 96-w format. Cell viability was measured with an EnVision multilabel plate reader.

Each structure is given as a SMILES string.

Take `CC1CCN(c2ccc(NC(=O)c3ccc([N+](=O)[O-])o3)cc2)CC1` [Compound 3d]: the “cell death seen by phase-contrast imaging” value in the assay with HCC-1806 cells [1] is given as “few cells were observed”. Besides, the “XBP1s, percentage of total XBP1” value in assay [2] is reported as 15˜20%. In addition, in assay [3], the “effect on ERSE-driven luciferase activity, in words” value was “no significant effect”. Also, the “viability of cells transfected with control siRNA” value with HCC-1806 cells [4] (HCC-1806, 3d 5 μM) is recorded as “marked reduction in the viability”. The “cell death in cells transfected with CHOP siRNA” value in the assay with HCC-1806 cells [4] (HCC-1806, CHOP siRNA 20 nM, 3d 5 μM) was “significantly attenuated the effects of compound 3d”.
